Measurements: patent publication US9102591B2, “Benzamides” (H. Lundbeck A/S, priority 2012, dated 2015)
pIC50: −log10 of the molar value.

Target: P2X7 receptor (Homo sapiens (Human), UniProt Q99572)
Test: P2X7 FLIPR assay (BzATP-stimulated calcium fluorescence, antagonist IC50)
Type: cell-based
Description: This example illustrates representative assays for use in evaluating the test compounds for antagonist activity. Compounds of the present invention were tested in vitro for their ability to act as antagonists to the P2X7receptor. […]
Cells were plated to cell density of approximately 15,000 cells/well in 384-well assay plates (50 μl/well) with 1.5% low serum media (DMEM, 1.5% FBS, 1% L-glut (2 mM), 10 mM HUES, 1% P/S). Cells were plated 24 hours prior to assay. Cells expressing human, rat or mouse P2X7 receptor were assayed in the following manner.
Fluo-4 NW dye mix (Molecular Probes, Inc., Eugene, Oreg., USA) was prepared in buffer (see manufacturer's instructions). Cell plates were removed from the 37° C. incubator, the media discarded and then 30 μL of dye was added to each well. Plates were placed in the 37° C., non-CO2 incubator for 30 minutes and then room temperature for 30 minutes.
Compound mixtures (A) were added to assay plates containing cells and placed at room temperature for 30 minutes, then BzATP (B) was added. Fluorescence was read using the Tetra FLIPR® (Molecular Devices, Inc., Sunnyvale, Calif., USA) and IC50 values were calculated by standard methods to determine antagonist activity.

Chain of P2X7 receptor (Q99572 whole entry): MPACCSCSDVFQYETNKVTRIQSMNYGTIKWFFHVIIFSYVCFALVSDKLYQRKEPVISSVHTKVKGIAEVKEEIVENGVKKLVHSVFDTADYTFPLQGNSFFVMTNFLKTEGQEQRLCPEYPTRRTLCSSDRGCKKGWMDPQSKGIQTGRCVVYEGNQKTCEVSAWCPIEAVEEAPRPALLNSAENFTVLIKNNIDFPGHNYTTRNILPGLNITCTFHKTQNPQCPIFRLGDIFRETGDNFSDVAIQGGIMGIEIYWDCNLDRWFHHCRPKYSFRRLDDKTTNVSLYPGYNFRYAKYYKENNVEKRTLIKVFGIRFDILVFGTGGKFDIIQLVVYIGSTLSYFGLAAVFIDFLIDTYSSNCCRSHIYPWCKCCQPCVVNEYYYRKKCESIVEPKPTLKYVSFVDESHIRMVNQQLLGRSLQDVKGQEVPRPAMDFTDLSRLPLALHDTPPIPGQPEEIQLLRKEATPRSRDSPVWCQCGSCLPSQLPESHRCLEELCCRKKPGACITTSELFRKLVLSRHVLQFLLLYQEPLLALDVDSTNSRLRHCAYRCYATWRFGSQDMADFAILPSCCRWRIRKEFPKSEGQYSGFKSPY

O=C(NCC(CC1CC1)c1ccc(C(F)(F)F)nc1)c1ccc(F)cc1Cl (centres unmarked) [2-chloro-N-(3-cyclopropyl-2-(6-(trifluoromethyl)pyridin-3-yl)propyl)-4-fluorobenzamide] showed a pIC50 of 6.51.

Compound CC(CNC(=O)c1ccccc1Cl)(CC1CC1)c1cnc(C(F)(F)F)nc1 (single isomer, unassigned; (+)) [(+)2-chloro-N-[3-cyclopropyl-2-methyl-2-[2-(trifluoromethyl)] [(+)2-chloro-N-[3-cyclopropyl-2-methyl-2-[2-(trifluoromethyl)pyrimidin-5-yl]propyl]benzamide] has a pIC50 of 6.34.

With Cc1ncc(C2(C(C)NC(=O)c3cccc(F)c3Cl)CCC(F)(F)CC2)cn1 (centres unmarked) [2-chloro-N-[1-[4,4-difluoro-1-(2-methylpyrimidin-5-yl)cyclohexyl]ethyl]-3-fluoro-benzamide] the pIC50 was 5.70.

O=C(NCC1(c2ccc(C(F)(F)F)cc2)CCOCC1)c1cccc(Cl)c1Cl was tested, and the pIC50 was 7.39.

Compound O=C(NCC(CC1CC1)c1ccc(C(F)(F)F)nc1)c1c(F)cccc1F (single isomer, unassigned; (+)) [(+)N-[3-cyclopropyl-2-[6-(trifluoromethyl)-3-pyridyl]propyl]] [(+)N-[3-cyclopropyl-2-[6-(trifluoromethyl)-3-pyridyl]propyl]-2,6-difluoro-benzamide] has a pIC50 of 6.13.

Work on Cc1c(F)cccc1C(=O)NCC1(c2ccc(C(F)(F)F)nc2)CCC(F)(F)CC1 [N-((4,4-difluoro-1-(6-(trifluoromethyl)pyridin-3-yl)cyclohexyl)methyl)-3-fluoro-2-methylbenzamide] yielded a pIC50 of 8.40.

For Cc1ncc(C(CNC(=O)c2cccc(Cl)c2Cl)C2CCOCC2)cn1 (single isomer, unassigned; (+)) [(+)2,3-dichloro-N-[2-(2-methylpyrimidin-5-yl)-2-tetrahydropy] [(+)2,3-dichloro-N-[2-(2-methylpyrimidin-5-yl)-2-tetrahydropyran-4-yl-ethyl]benzamide], the pIC50 was 7.55.

With Cc1ncc(C2(CNC(=O)c3cccc(Cl)c3Cl)CCC(F)(F)CC2)cn1 [2,3-dichloro-N-[[4,4-difluoro-1-(2-methylpyrimidin-5-yl)cyclohexyl]methyl]benzamide] the pIC50 was 8.07.

COc1cccc(C(=O)NCC(CC2CC2)c2cnc(C(F)(F)F)nc2)c1C (single isomer, unassigned; (-)) [(−)N-[3-cyclopropyl-2-[2-(trifluoromethyl)pyrimidin-5-yl]pro] [(−)N-[3-cyclopropyl-2-[2-(trifluoromethyl)pyrimidin-5-yl]propyl]-3-methoxy-2-methyl-benzamide] gave a pIC50 of 8.85.

Work on O=C(NCC(CC1CC1)c1ccc(C(F)(F)F)nc1)c1c(F)cccc1F (single isomer, unassigned; (-)) [(−)N-[3-cyclopropyl-2-[6-(trifluoromethyl)-3-pyridyl]propyl]] yielded a pIC50 of 6.89.

For O=C(NCC(CC1CC1)c1ccc(C(F)(F)F)nc1)c1ccccc1Cl (centres unmarked) [2-chloro-N-[3-cyclopropyl-2-[6-(trifluoromethyl)-3-pyridyl]propyl]benzamide], the pIC50 was 8.47.

For O=C(NCC(c1cnc(C(F)(F)F)nc1)C1CCC(F)(F)CC1)c1cccc(F)c1Cl (single isomer, unassigned; (-)) [(−)2-chloro-N-[2-(4,4-difluorocyclohexyl)-2-[2-(trifluoromet] [(−)2-chloro-N-[2-(4,4-difluorocyclohexyl)-2-[2-(trifluoromethyl)pyrimidin-5-yl]ethyl]-3-fluoro-benzamide], the pIC50 was 7.36.

For O=C(NCC(c1ccc(F)cc1)c1cnc(C(F)(F)F)nc1)c1cccc(Cl)c1Cl (single isomer, unassigned; (-)) [(−)2,3-dichloro-N-[2-(4-fluorophenyl)-2-[2-(trifluoromethyl)] [(−)2,3-dichloro-N-[2-(4-fluorophenyl)-2-[2-(trifluoromethyl)pyrimidin-5-yl]ethyl]benzamide], the pIC50 was 8.92.

Cc1ncc(C(CNC(=O)c2cccc(F)c2Cl)C2CCOCC2)cn1 (centres unmarked) [2-chloro-3-fluoro-N-[2-(2-methylpyrimidin-5-yl)-2-tetrahydropyran-4-yl-ethyl]benzamide] was tested, and the pIC50 was 6.68.
